US10065948B2, “Histone deacetylase inhibitors and compositions and methods of use thereof” (CHDI Foundation, Inc., priority 2014, dated 2018)

How the values were obtained:
[1] = molecular target: Histone Deacetylase 4 (HDAC4) catalytic domain (Homo sapiens (Human), UniProt P56524); experiment: Biochemical HDAC inhibition assay, fluorogenic substrate Boc-Lys(Tfa)-AMC
Protocol: The potency of compounds is quantified by measuring the Histone Deacetylase 4 (HDAC4) catalytic domain enzymatic activity using the fluorogenic substrate, Boc-Lys(Tfa)-AMC. The substrate is deacetylated to Boc-Lys-AMC by HDAC4. Cleavage by trypsin results in the release of the fluorophore AMC from the deacetylated substrate. The fluorescence of the sample is directly related to the histone deacetylase activity in the sample.
Stocks of 60 μL aliquots of the 10 mM compound in DMSO are prepared and stored at −20° C. From one stock aliquot of each compound to be tested and the reference compound, a 16-point serial dilution is prepared according to Table 1 using a 125 μL 16-channel Matrix multi-channel pipette (Matrix Technologies Ltd).
2 μL (200×) of each diluted solution and each control (full activity: 100% DMSO alone or full inhibition 1 mM) is stamped into V-bottomed polypropylene 384-well compound plates using either the Bravo (384-well head from Agilent) or 12.5 μL 16-channel Matrix multi-channel pipette (Matrix Technologies Ltd). Each well with the 200× compound solution is diluted 1:20 by the addition of 38 μL assay buffer+DMSO (10.5% DMSO, 45 mM Tris-HCl, 123 mM NaCl, 2.4 mM KCl, and 0.9 mM MgCl2 at pH 8.0 and equilibrated to room temperature).
The HDAC4 catalytic domain enzyme is human catalytic domain HDAC4 protein (amino acids 648-1032) with a C-terminal 6× histidine tag, produced by BioFocus. A working solution of enzyme is prepared from a 500 μg/mL stock aliquot of HDAC4 catalytic domain (thawed on ice) diluted to 0.2 μg/mL with assay buffer (50 mM Tris-HCl, 137 mM NaCl, 2.7 mM KCl, and 1 mM MgCl2 at pH 8 and equilibrated to room temperature) just prior to the addition of the enzyme to the assay.
5× (50 μM) substrate is prepared just prior to the addition to the assay. A 1 mM substrate stock is made by diluting a 100 mM Boc-Lys(Tfa)-AMC in DMSO solution 1:100 by adding it drop-wise to assay buffer (equilibrated to room temperature) while vortexing at slow speed to prevent precipitation. The 5× substrate is prepared by diluting the 1 mM substrate solution 1:20 by adding it drop-wise to assay buffer (equilibrated to room temperature) while vortexing at slow speed to prevent precipitation.
3× (30 μM) Developer/Stop Solution is prepared just prior to addition to the plate by diluting a stock solution of 10 mM reference compound 1:333 in 25 mg/mL trypsin (PAA Laboratories Ltd.) equilibrated to room temperature.
5 μL of each solution of 1:20 diluted compound from above is transferred to a clear bottomed, black, 384-well assay plate using the Bravo or the Janus (384-well MDT head from Perkin Elmer). Using a 16-channel Matrix multi-channel pipette, 35 μL of the working solution of HDAC4 catalytic domain enzyme (0.2 μg/mL in assay buffer) is transferred to the assay plate. […] The assay plate is then shaken for two minutes on an orbital shaker at 900 rpm (rotations per minute). Next the plate is incubated for 15 minutes at 37° C. The reaction is stopped by adding 25 μL of 3× (30 μM) developer/stop solution to the assay plates using either the Bravo, Janus or a 16-channel Matrix multi-channel pipette. Assay plates are then shaken for 5 minutes on an orbital shaker at 1200 rpm. Next, the assay plates are incubated at 37° C. for 1 hour in a tissue culture incubator. Finally, the fluorescence is measured (Excitation: 355 nm, Emission: 460 nm) using PerkinElmer EnVision in top read mode.

[2] = tested on: cellular histone deacetylase enzymatic activity in Jurkat E6-1 cells; experiment: Inhibition of cellular HDAC activity, Boc-Lys(Tfa)-AMC substrate (Cell Lys-TFA); format: cell-based; settings: Homo sapiens, Jurkat E6.1, Lys-TFA substrate
Protocol: The potency of the compounds is quantified by measuring the cellular histone deacetylase enzymatic activity using the fluorogenic substrate, Boc-Lys(Tfa)-AMC. After penetration in Jurkat E6-1 cells, the substrate is deacetylated to Boc-Lys-AMC. After cell lysis and cleavage by trypsin, the fluorophore AMC is released from the deacetylated substrate only. The fluorescence of the sample is directly related to the histone deacetylase activity in the sample.
Jurkat E6.1 cells are cultured according to standard cell culture protocols in Jurkat E6.1 Growth Media (RPMI without phenol red, 10% FBS, 10 mM HEPES, and 1 mM Sodium Pyruvate). Jurkat E6.1 cells are counted using a Coulter Counter and resuspended in Jurkat E6.1 growth media at a concentration of 75,000 cells/35 μL. 35 μL or 75,000 cells is seeded into Greiner microtitre assay plates. The plates are then incubated at 37° C. and 5% CO2 while other assay components are being prepared.
Stocks of 70 μL aliquots of the 10 mM compound in DMSO are prepared and stored at −20° C. From one stock aliquot of each compound to be tested and the reference compound, a 16-point serial dilution is prepared according to Table 1 using a 125 μL 16-channel Matrix multi-channel pipette.
2 μL (200×) of each diluted solution and each control (full activity: 100% DMSO alone or full inhibition 1 mM) is stamped into V-bottom polypropylene 384-well compound plates using either the Bravo, Janus, or 12.5 μL 16-channel Matrix multi-channel pipette. Each well with the 200× compound solution is diluted 1:20 by the addition of 38 μL Jurkat assay buffer+DMSO (9.5% DMSO, RPMI without phenol red, 0.09% FBS, 9 mM Hepes, and 0.9 mM Sodium Pyruvate equilibrated to room temperature)
5× (500 μM) substrate is prepared just prior to the addition to the assay. The 5× substrate is prepared by diluting a 100 mM Boc-Lys(Tfa)-AMC in DMSO solution 1:200 by adding it drop-wise to Jurkat assay medium (RPMI without phenol red, 0.1% FBS, 10 mM Hepes, and 1 mM Sodium Pyruvate equilibrated to 37° C.) while vortexing at slow speed to prevent precipitation.
10 mL of 3× lysis buffer is prepared with 8.8 ml of 3× stock lysis buffer (50 mM Tris-HCl, pH 8.0, 137 mM NaCl, 2.7 mM KCl, 1 mM MgCl2, 1% Nonidet P40 Substitute equilibrated to room temperature) and 1.2 mL of 3 mg/mL Trypsin equilibrated to room temperature.
5 μL of each solution of 1:20 diluted compound from above is transferred to the Greiner microtitre assay plates with 75,000 cells/well using the Bravo. Cells are then incubated for 2 hours at 37° C. and 5% CO2. […] The cells are then incubated for 3 hours at 37° C. and 5% CO2. Next, 25 μL of 3× lysis buffer is added to each well using either the 125 μL 16 channel pipette or the Bravo. The assay plate is then incubated overnight (15-16 hours) at 37° C. and 5% CO2. The following day, the plates are shaken on an orbital shaker for 1 minute at 900 rpm. Finally the top read fluorescence (Excitation: 355 nm, Emission: 460 nm) is measured using PerkinElmer EnVision.

[3] = tested on: cellular histone deacetylase activity (Lys-Ac); experiment: Inhibition of cellular HDAC activity (Cell Lys-Ac); format: cell-based; settings: Lys-Ac substrate

Histone Deacetylase 4 (HDAC4) catalytic domain, sequence (P56524 648-1032): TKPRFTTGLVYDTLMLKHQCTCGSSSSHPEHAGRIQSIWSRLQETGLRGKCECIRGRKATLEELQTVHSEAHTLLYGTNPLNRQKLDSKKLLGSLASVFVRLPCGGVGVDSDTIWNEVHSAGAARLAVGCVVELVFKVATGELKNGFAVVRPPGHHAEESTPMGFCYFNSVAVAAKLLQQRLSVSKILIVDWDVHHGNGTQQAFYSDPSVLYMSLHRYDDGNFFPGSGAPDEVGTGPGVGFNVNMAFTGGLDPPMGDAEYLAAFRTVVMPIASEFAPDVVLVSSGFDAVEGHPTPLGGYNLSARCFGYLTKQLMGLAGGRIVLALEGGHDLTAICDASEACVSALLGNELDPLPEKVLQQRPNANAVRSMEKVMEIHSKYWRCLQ

SMILES | IC50 [1] | IC50 [2] | IC50 [3]
Cc1c(F)cccc1[C@]1(C(=O)NO)Cc2cnn(-c3cccc(Cl)c3)c2C1 [Example 4, (S)-1-(3-Chlorophenyl)-5-(3-fluoro-2-methylphenyl)-N-hydroxy-1,4,5,6-tetrahydrocyclopenta[c]pyrazole-5-carboxamide] | 61 nM | 72 nM | > 50000 nM
Cc1c(F)cccc1[C@]1(C(=O)NO)Cc2cnn(-c3ccc(F)cc3)c2C1 [Example 5, (S)-5-(3-Fluoro-2-methylphenyl)-1-(4-fluorophenyl)-N-hydroxy-1,4,5,6-tetrahydrocyclopenta[c]pyrazole-5-carboxamide] | 53 nM | 99 nM | > 50000 nM
Cc1c(F)cccc1[C@]1(C(=O)NO)Cc2cnn(-c3cccc(F)c3)c2C1 [Example 6, (S)-5-(3-Fluoro-2-methylphenyl)-1-(3-fluorophenyl)-N-hydroxy-1,4,5,6-tetrahydrocyclopenta[c]pyrazole-5-carboxamide] | 44 nM | 67 nM | > 50000 nM
Cc1ccc(-n2ncc3c2C[C@](C(=O)NO)(c2cccc(F)c2C)C3)cc1 [Example 9, (S)-5-(3-Fluoro-2-methylphenyl)-N-hydroxy-1-(p-tolyl)-1,4,5,6-tetrahydrocyclopenta[c]pyrazole-5-carboxamide] | 39 nM | 82 nM | > 50000 nM
Cc1cccc(C)c1-n1ncc2c1C[C@](C(=O)NO)(c1cccc(F)c1C)C2 [Example 13, (S)-1-(2,6-Dimethylphenyl)-5-(3-fluoro-2-methylphenyl)-N-hydroxy-1,4,5,6-tetrahydrocyclopenta[c]pyrazole-5-carboxamide] | 27 nM | 12 nM | > 50000 nM
Cc1c(F)cccc1[C@]1(C(=O)NO)Cc2cnn(-c3ccc(F)cn3)c2C1 [Example 16, (S)-5-(3-Fluoro-2-methylphenyl)-1-(5-fluoropyridin-2-yl)-N-hydroxy-1,4,5,6-tetrahydrocyclopenta[c]pyrazole-5-carboxamide] | 31 nM | 69 nM | > 50000 nM
Cc1c(F)cccc1[C@]1(C(=O)NO)Cc2cnn(-c3ccc(F)cc3F)c2C1 [Example 17, (S)-1-(2,4-Difluorophenyl)-5-(3-fluoro-2-methylphenyl)-N-hydroxy-1,4,5,6-tetrahydrocyclopenta[c]pyrazole-5-carboxamide] | 29 nM | 39 nM | > 50000 nM
Cc1c(F)cccc1[C@]1(C(=O)NO)Cc2cnn(C3CCCC3)c2C1 [Example 18, (S)-1-Cyclopentyl-5-(3-fluoro-2-methylphenyl)-N-hydroxy-1,4,5,6-tetrahydrocyclopenta[c]pyrazole-5-carboxamide] | 37 nM | 163 nM | > 50000 nM
Cc1c(F)cccc1[C@]1(C(=O)NO)Cc2cnn(-c3cnccn3)c2C1 [Example 19, (S)-5-(3-Fluoro-2-methylphenyl)-N-hydroxy-1-(pyrazin-2-yl)-1,4,5,6-tetrahydrocyclopenta[c]pyrazole-5-carboxamide] | 38 nM | 53 nM | > 50000 nM
Cc1c(F)cccc1[C@]1(C(=O)NO)Cc2cnn(-c3ccc(OC(F)F)cc3)c2C1 [Example 20, (S)-1-(4-(Difluoromethoxy)phenyl)-5-(3-fluoro-2-methylphenyl)-N-hydroxy-1,4,5,6-tetrahydrocyclopenta[c]pyrazole-5-carboxamide] | 109 nM | 250 nM | > 50000 nM

Stronger by IC50 [1], values ahead:

IC50 [1] | IC50 [2] | IC50 [3] | SMILES
15 nM | 13 nM | > 50000 nM | Cc1c(F)cccc1[C@]1(C(=O)NO)Cc2cnn(-c3ccccc3Cl)c2C1 [Example 7, (S)-1-(2-Chlorophenyl)-5-(3-fluoro-2-methylphenyl)-N-hydroxy-1,4,5,6-tetrahydrocyclopenta[c]pyrazole-5-carboxamide]
17 nM | 17 nM | > 50000 nM | Cc1c(F)cccc1[C@]1(C(=O)NO)Cc2cnn(-c3cccc(Cl)c3F)c2C1 [Example 10, (S)-1-(3-Chloro-2-fluorophenyl)-5-(3-fluoro-2-methylphenyl)-N-hydroxy-1,4,5,6-tetrahydrocyclopenta[c]pyrazole-5-carboxamide]
21 nM | 18 nM | > 50000 nM | Cc1ccc(C)c(-n2ncc3c2C[C@](C(=O)NO)(c2cccc(F)c2C)C3)c1 [Example 12, (S)-1-(2,5-Dimethylphenyl)-5-(3-fluoro-2-methylphenyl)-N-hydroxy-1,4,5,6-tetrahydrocyclopenta[c]pyrazole-5-carboxamide]
15 nM | 11 nM | > 50000 nM | Cc1c(F)cccc1[C@]1(C(=O)NO)Cc2cnn(-c3c(F)cccc3Cl)c2C1 [Example 14, (S)-1-(2-Chloro-6-fluorophenyl)-5-(3-fluoro-2-methylphenyl)-N-hydroxy-1,4,5,6-tetrahydrocyclopenta[c]pyrazole-5-carboxamide]
19 nM | 32 nM | > 50000 nM | Cc1cccc(F)c1-n1ncc2c1C[C@](C(=O)NO)(c1cccc(F)c1C)C2 [Example 15, (S)-5-(3-Fluoro-2-methylphenyl)-1-(2-fluoro-6-methylphenyl)-N-hydroxy-1,4,5,6-tetrahydrocyclopenta[c]pyrazole-5-carboxamide]
